For 29 compounds, IC50 results are on record in patent US10472358B2, “1H-pyrrolo[2,3-c]pyridin-7(6H)-ones and pyrazolo[3,4-c]pyridin-7(6H)-ones as inhibitors of BET proteins” (Incyte Corporation, priority 2014, dated 2019).

For one experiment, the system named is KMS.12.BM cells. Put plainly: KMS.12.BM cell viability assay (Cell Titer-GLO, ATP quantitation). The experiment is classed as cell-based. The conditions noted are these: KMS-12-BM, 72 h; human myeloma cells, 3 days, concentration required for 50% cell death. An outline of the steps:
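KMS.12.BM human myeloma cells (5000/well, RPMI with 10% FBS) were exposed to a compound concentration range for 3 days. Viable cells were measured by CellTiter-Glo ATP luminescence. IC50 is the concentration giving 50% cell death relative to untreated cells.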
Broadly, the IC50 is the point on the concentration scale where inhibition reaches its midpoint. Read a low IC50 as greater potency in that assay. In turn, `CN1C(=O)C(C)(C)Oc2c(-c3cn(C)c(=O)c4[nH]ccc34)cc(S(C)(=O)=O)cc21` [Example 75, 2,2,4-trimethyl-8-(6-methyl-7-oxo-6,7-dihydro-1H-pyrrolo[2,3-c]pyridin-4-yl)-6-(methylsulfonyl)-2H-1,4-benzoxazin-3(4H)-one] gave an IC50 of at most 1000 nM.

`CC(O)c1cc2c(c(-c3cn(C)c(=O)c4[nH]ccc34)c1)OC(C)(C)C(=O)N2` (centres unmarked) [Example 81, 6-(1-hydroxyethyl)-2,2-dimethyl-8-(6-methyl-7-oxo-6,7-dihydro-1H-pyrrolo[2,3-c]pyridin-4-yl)-2H-1,4-benzoxazin-3(4H)-one] showed an IC50 of at most 1000 nM.

As to `CNC(=O)CN1C(=O)C(C(C)C)Oc2c(-c3cn(C)c(=O)c4[nH]ccc34)cc(OC)cc21` (centres unmarked) [Example 12, 2-[2-isopropyl-6-methoxy-8-(6-methyl-7-oxo-6,7-dihydro-1H-pyrrolo[2,3-c]pyridin-4-yl)-3-oxo-2,3-dihydro-4H-1,4-benzoxazin-4-yl]-N-methylacetamide], the IC50 was at most 1000 nM.

Compound `COc1cc(-c2cn(C)c(=O)c3[nH]ccc23)c2c(c1)N(C)CC(C(C)C)O2` (centres unmarked) [Example 22, 4-(2-isopropyl-6-methoxy-4-methyl-3,4-dihydro-2H-1,4-benzoxazin-8-yl)-6-methyl-1,6-dihydro-7H-pyrrolo[2,3-c]pyridin-7-one] showed a 50% inhibitory concentration (IC50) of 1000 to 10000 nM.

For the compound `COc1cc(-c2cn(C)c(=O)c3[nH]ccc23)c2c(c1)N(C)C(=O)C(C(C)C)O2` (centres unmarked) [Example 10, 2-isopropyl-6-methoxy-4-methyl-8-(6-methyl-7-oxo-6,7-dihydro-1H-pyrrolo[2,3-c]pyridin-4-yl)-2H-1,4-benzoxazin-3(4H)-one], the IC50 was at most 1000 nM.

For `CC(C)C1Oc2c(-c3cn(C)c(=O)c4[nH]ccc34)cc(S(=O)(=O)N(C)C)cc2N(C)C1=O` (centres unmarked) [Example 71, 2-isopropyl-N,N,4-trimethyl-8-(6-methyl-7-oxo-6,7-dihydro-1H-pyrrolo[2,3-c]pyridin-4-yl)-3-oxo-3,4-dihydro-2H-1,4-benzoxazine-6-sulfonamide], the IC50 is at most 1000 nM.

Compound `COc1cc(-c2cn(C)c(=O)c3[nH]ccc23)c2c(c1)N(Cc1ccncc1)C(=O)C(C(C)C)O2` (centres unmarked) [Example 15, 2-isopropyl-6-methoxy-8-(6-methyl-7-oxo-6,7-dihydro-1H-pyrrolo[2,3-c]pyridin-4-yl)-4-(pyridin-4-ylmethyl)-2H-1,4-benzoxazin-3(4H)-one] gave an IC50 of at most 1000 nM.

In turn, `Cn1cc(-c2cc(S(C)(=O)=O)cc3c2NC(C)(C)C(=O)N3)c2cc[nH]c2c1=O` [Example 58, 3,3-dimethyl-5-(6-methyl-7-oxo-6,7-dihydro-1H-pyrrolo[2,3-c]pyridin-4-yl)-7-(methylsulfonyl)-3,4-dihydroquinoxalin-2(1H)-one] registered an IC50 of at most 1000 nM.

Take `Cn1cc(-c2cccc3c2OC(C)(C)C(=O)N3)c2cc[nH]c2c1=O` [Example 31, 2,2-dimethyl-8-(6-methyl-7-oxo-6,7-dihydro-1H-pyrrolo[2,3-c]pyridin-4-yl)-2H-1,4-benzoxazin-3(4H)-one]: the IC50 is at most 1000 nM.

Take `CC(=O)NCc1cc2c(c(-c3cn(C)c(=O)c4[nH]ccc34)c1)OC(C(C)C)C(=O)N2` (centres unmarked) [Example 40, N-{[2-isopropyl-8-(6-methyl-7-oxo-6,7-dihydro-1H-pyrrolo[2,3-c]pyridin-4-yl)-3-oxo-3,4-dihydro-2H-1,4-benzoxazin-6-yl]methyl}acetamide]: the half-maximal inhibitory concentration (IC50) is at most 1000 nM.

The compound `CC(C)C1Oc2c(cc(C(=O)N3CCOCC3)cc2-c2cn(C)c(=O)c3[nH]ccc23)NC1=O` (centres unmarked) [Example 33, 2-isopropyl-8-(6-methyl-7-oxo-6,7-dihydro-1H-pyrrolo[2,3-c]pyridin-4-yl)-6-(morpholin-4-ylcarbonyl)-2H-1,4-benzoxazin-3(4H)-one] gave an IC50 of at most 1000 nM.

As for `CC(C)C1Oc2c(-c3cn(C)c(=O)c4[nH]ccc34)cc(S(C)(=O)=O)cc2N(C)C1=O` (centres unmarked) [Example 47, 2-isopropyl-4-methyl-8-(6-methyl-7-oxo-6,7-dihydro-1H-pyrrolo[2,3-c]pyridin-4-yl)-6-(methylsulfonyl)-2H-1,4-benzoxazin-3(4H)-one], the IC50 was at most 1000 nM.

On to `COc1cc2c(c(-c3cn(C)c(=O)c4[nH]ncc34)c1)OC(C(C)C)C(=O)N2` (centres unmarked) [Example 26, 2-isopropyl-6-methoxy-8-(6-methyl-7-oxo-6,7-dihydro-1H-pyrazolo[3,4-c]pyridin-4-yl)-2H-1,4-benzoxazin-3(4H)-one], for which the IC50 is at most 1000 nM.

For `COc1cc2c(c(-c3cn(C)c(=O)c4[nH]ccc34)c1)OC(C(C)C)C(=O)N2` (centres unmarked) [Example 9, 2-isopropyl-6-methoxy-8-(6-methyl-7-oxo-6,7-dihydro-1H-pyrrolo[2,3-c]pyridin-4-yl)-2H-1,4-benzoxazin-3(4H)-one], the IC50 is at most 1000 nM.

Turning to `CCS(=O)(=O)c1cc(-c2cn(C)c(=O)c3[nH]ccc23)c2c(c1)N(C)C(=O)C(C)(C)O2` [Example 76, 6-(ethylsulfonyl)-2,2,4-trimethyl-8-(6-methyl-7-oxo-6,7-dihydro-1H-pyrrolo[2,3-c]pyridin-4-yl)-2H-1,4-benzoxazin-3(4H)-one], the IC50 is at most 1000 nM.

The compound `Cn1cc(-c2cc(S(=O)(=O)N3CCCCC3)cc3c2OC(C)(C)C(=O)N3)c2cc[nH]c2c1=O` [Example 72, 2,2-dimethyl-8-(6-methyl-7-oxo-6,7-dihydro-1H-pyrrolo[2,3-c]pyridin-4-yl)-6-(piperidin-1-ylsulfonyl)-2H-1,4-benzoxazin-3(4H)-one] had an IC50 of at most 1000 nM.

For the compound `COc1cc2c(c(-c3cn(C)c(=O)c4[nH]ccc34)c1)OC(c1ccccc1)C(=O)N2` (centres unmarked) [Example 24, 6-methoxy-8-(6-methyl-7-oxo-6,7-dihydro-1H-pyrrolo[2,3-c]pyridin-4-yl)-2-phenyl-2H-1,4-benzoxazin-3(4H)-one], the IC50 was at most 1000 nM.

For `Cn1cc(-c2cccc3c2NC(C)(C)C(=O)N3)c2cc[nH]c2c1=O` [Example 32, 3,3-dimethyl-5-(6-methyl-7-oxo-6,7-dihydro-1H-pyrrolo[2,3-c]pyridin-4-yl)-3,4-dihydroquinoxalin-2(1H)-one], the IC50 was at most 1000 nM.

As for `CN(C)S(=O)(=O)c1cc2c(c(-c3cn(C)c(=O)c4[nH]ccc34)c1)OC(C)(C)C(=O)N2` [Example 70, N,N,2,2-tetramethyl-8-(6-methyl-7-oxo-6,7-dihydro-1H-pyrrolo[2,3-c]pyridin-4-yl)-3-oxo-3,4-dihydro-2H-1,4-benzoxazine-6-sulfonamide], the IC50 was at most 1000 nM.

Regarding `CC(C)C1Oc2c(cc(-c3cnn(C)c3)cc2-c2cn(C)c(=O)c3[nH]ccc23)NC1=O` (centres unmarked) [Example 28, 2-isopropyl-8-(6-methyl-7-oxo-6,7-dihydro-1H-pyrrolo[2,3-c]pyridin-4-yl)-6-(1-methyl-1H-pyrazol-4-yl)-2H-1,4-benzoxazin-3(4H)-one], the IC50 is at most 1000 nM.

In the case of `CCS(=O)(=O)c1cc(-c2cn(C)c(=O)c3[nH]ccc23)c2c(c1)N(C)C(=O)C(C(C)C)O2` (centres unmarked) [Example 55, 6-(ethylsulfonyl)-2-isopropyl-4-methyl-8-(6-methyl-7-oxo-6,7-dihydro-1H-pyrrolo[2,3-c]pyridin-4-yl)-2H-1,4-benzoxazin-3(4H)-one], the IC50 is at most 1000 nM.

In the case of `Cn1cc(-c2cccc3c2OC2(CC2)C(=O)N3)c2cc[nH]c2c1=O` [Example 30, 8-(6-methyl-7-oxo-6,7-dihydro-1H-pyrrolo[2,3-c]pyridin-4-yl)spiro[1,4-benzoxazine-2,1′-cyclopropan]-3(4H)-one], the IC50 was at most 1000 nM.

In the case of `COc1cc2c(c(-c3cn(C)c(=O)c4[nH]ccc34)c1)OC(C1CCCC1)C(=O)N2` (centres unmarked) [Example 35, 2-cyclopentyl-6-methoxy-8-(6-methyl-7-oxo-6,7-dihydro-1H-pyrrolo[2,3-c]pyridin-4-yl)-2H-1,4-benzoxazin-3(4H)-one], the IC50 is at most 1000 nM.

As to `CC(C)C1Oc2c(cc(S(C)(=O)=O)cc2-c2cn(C)c(=O)c3[nH]ccc23)NC1=O` (single isomer, unassigned) [Example 44A, 2-isopropyl-8-(6-methyl-7-oxo-6,7-dihydro-1H-pyrrolo[2,3-c]pyridin-4-yl)-6-(methylsulfonyl)-2H-1,4-benzoxazin-3(4H)-one], the IC50 was at most 1000 nM.

As to `Cn1cc(-c2cc(S(C)(=O)=O)cc3c2NC2(CCC2)C(=O)N3)c2cc[nH]c2c1=O` [Example 62, 8′-(6-methyl-7-oxo-6,7-dihydro-1H-pyrrolo[2,3-c]pyridin-4-yl)-6′-(methylsulfonyl)-1′,4′-dihydro-3′H-spiro[cyclobutane-1,2′-quinoxalin]-3′-one], the concentration for half-maximal inhibition (IC50) was at most 1000 nM.

As for `CC(C)NS(=O)(=O)c1cc2c(c(-c3cn(C)c(=O)c4[nH]ccc34)c1)OC(C)(C)C(=O)N2` [Example 74, N-isopropyl-2,2-dimethyl-8-(6-methyl-7-oxo-6,7-dihydro-1H-pyrrolo[2,3-c]pyridin-4-yl)-3-oxo-3,4-dihydro-2H-1,4-benzoxazine-6-sulfonamide], the IC50 was at most 1000 nM.

As to `CC(C)C1Oc2c(-c3cn(C)c(=O)c4[nH]ccc34)cc(C#N)cc2N(C)C1=O` (centres unmarked) [Example 18, 2-isopropyl-4-methyl-8-(6-methyl-7-oxo-6,7-dihydro-1H-pyrrolo[2,3-c]pyridin-4-yl)-3-oxo-3,4-dihydro-2H-1,4-benzoxazine-6-carbonitrile], the IC50 is at most 1000 nM.

Staying with this experiment, now noted: human myeloma cells, 3 days, concentration required for 50% cell death.
With `COc1cc2c(c(-c3cn(C)c(=O)c4[nH]ccc34)c1)OC(C1CCCC1)C(=O)N2` (single isomer, unassigned) [Example 35B, 2-Cyclopentyl-6-methoxy-8-(6-methyl-7-oxo-6,7-dihydro-1H-pyrrolo[2,3-c]pyridin-4-yl)-2H-1,4-benzoxazin-3(4H)-one], the IC50 was at most 1000 nM.

`COc1cc2c(c(-c3cn(C)c(=O)c4[nH]ncc34)c1)OC(C1CCCC1)C(=O)N2` (single isomer, unassigned) [Example 42B, 2-cyclopentyl-6-methoxy-8-(6-methyl-7-oxo-6,7-dihydro-1H-pyrazolo[3,4-c]pyridin-4-yl)-2H-1,4-benzoxazin-3(4H)-one] had an IC50 of at most 1000 nM.
